This data set can be described thus: rat whole body radiography. The class given is in vivo. The text has this:
This has been shown by rat whole body radiography.

For the compound `Cc1ccc(Cc2cnc(NCCCCc3ncc(Br)cc3C)[nH]c2=O)cn1` [Example 1, 2-[4-(5-bromo-3-methylpyrid-2-yl)-butylamino]-5-(6-methylpyrid-3-yl-methyl)-4-pyrimidone], the “entry into the central nervous system” value was “does not enter the central nervous system”.

The record behind these values is patent publication US4486434A, “Histamine H1 -antagonists” (Smith Kline & French Laboratories Limited, priority 1981, dated 1984).
